In the NIST ThermoML archive (doi:10.1016/j.jct.2015.12.029):

Assay: mn = molality of the nth substance listed, in mol/kg
Details: 100 kPa, Liquid; for molar conductivity: Alternating current cell with electrodes; for mass density: Vibrating tube method, m1 = 0.009397

CCn1cc[n+](C)c1.F[B-](F)(F)F [1-ethyl-3-methylimidazolium tetrafluoroborate] + CCCCO
molar conductivity [S·m2/mol]
Details | 283.15 K | 288.15 K | 293.15 K | 298.15 K | 303.15 K | 308.15 K | 313.15 K | 318.15 K
m1 = 3.974e-05 | 0.00127 | 0.00144 | 0.00165 | 0.00188 | 0.00213 | 0.002402 | 0.00268 | 0.003
m1 = 6.936e-05 | 0.001204 | 0.00138 | 0.00158 | 0.0018 | 0.00203 | 0.00228 | 0.00255 | 0.00284
m1 = 0.0001047 | 0.00115 | 0.00132 | 0.001505 | 0.00172 | 0.00193 | 0.00217 | 0.00242 | 0.00269
m1 = 0.0001865 | 0.00106 | 0.00121 | 0.00138 | 0.00157 | 0.00177 | 0.00198 | 0.0022 | 0.00244
m1 = 0.0002945 | 0.000977 | 0.00111 | 0.00127 | 0.00144 | 0.00162 | 0.00181 | 0.00201 | 0.00222
m1 = 0.0004005 | 0.000913 | 0.00104 | 0.00119 | 0.00134 | 0.00151 | 0.00169 | 0.00187 | 0.00206
m1 = 0.000688 | 0.000802 | 0.000915 | 0.00104 | 0.00117 | 0.00131 | 0.00146 | 0.00162 | 0.00178
m1 = 0.0009724 | 0.000729 | 0.00083 | 0.000943 | 0.00106 | 0.00119 | 0.00133 | 0.00147 | 0.00161
m1 = 0.001464 | 0.000642 | 0.000733 | 0.000833 | 0.000942 | 0.00106 | 0.00117 | 0.00129 | 0.00142
m1 = 0.001942 | 0.000597 | 0.000668 | 0.000762 | 0.000859 | 0.000961 | 0.00107 | 0.00118 | 0.00129
m1 = 0.002839 | 0.000519 | 0.000592 | 0.000671 | 0.000759 | 0.000848 | 0.000941 | 0.00103 | 0.00114

Details | mass density [kg/m3]
283.15 K | 817.716
288.15 K | 813.954
293.15 K | 810.164
298.15 K | 806.357
303.15 K | 802.519
308.15 K | 798.653
313.15 K | 794.75
318.15 K | 790.804
